This is an account of results in patent US20230277569A1, “Compositions and Methods for Treating, Ameliorating and/or Preventing Cancer and Kits for the Same” (priority 2022, published 2023).

Data set [1] has as its system tumor. Conditions: cited from earlier work.
Data set [2] deals with breast adenocarcinoma cell lines. To be noted: breast adenocarcinoma lines of NCI 60 screen; read-out: IC50 anticancer activity; cited from earlier work.
The nature of data set [3]: Toxicity in beagle dogs, IV infusion for 36 d. The data set is classed as in vivo. To be noted: beagle, dog, in vivo, iv, dogs; for AUC(0-t): read-out: AUC0-24. As for the experimental part: Eighteen male and female (5-6 mo old) purebred beagle dogs (Cumberland, Va.) were acclimated for 47 d (20 to 26° C., relative humidity 30-70%, 10 or greater air changes/h, and a 12-h light/dark cycle) prior to study initiation. Animals were given water ad libitum and Certified Canine Diet #5007 (PMI Nutrition International Certified LabDiet®) for 4 to 5 h each day. At study initiation, animal body weights ranged from 8.6 to 11.5 kg for males and 6.0 to 9.4 kg for females. At least 1 week prior to initiation of dosing, animals were fasted overnight, anesthetized, and a catheter attached to a subcutaneous vascular access port was surgically implanted into a jugular vein. Animals were acclimated to infusion jackets prior to catheter implantation surgery. Animals were infused with sterile saline at a dose rate of 5 mL/h when the vascular access ports were accessed and when animals were connected to the infusion system (except when dosed with the test or vehicle control article). The patency of each catheter was checked as needed. Prednisolone tablets were administered orally at 2 mg/kg the night prior to dosing. Diphenhydramine (5 mg/kg; IM injection 0.1 mL/kg, 50 mg/mL) was administered prior to dosing and post the start of infusion (d 1 only). Male and female dogs received dose levels of Gamitrinib of 1.25, 3.33 and 6.25 mg/kg/dose formulated as indicated above during a 1 h infusion on d 1, 8, 11, 15, 18, 22, 25, 29, 32, and 36 at a volume of 2 mL/kg. The vehicle control was as above. […] Dosing was stopped, and 23 of 24 animals were administered additional diphenhydramine, 11 were administered Flunixin meglumine and buprenorphine, and 6 were administered acepromazine. Symptoms subsided in all animals after completion of these interventions. As a result of these observations, the polysorbate levels, which were increased from 0.025% (w/v) to 0.125% (w/v) to minimize precipitation, were returned to the original concentrations; 2 mg/kg prednisone was administered orally the night prior to dosing; and the diphenhydramine pretreatment dose was updated to 5 mg/kg 15 to 30 min prior to dosing. Detailed observations were conducted for each animal up to seven times during the predose phase, prior to dosing on d 1, 8, 15, 22, 29, and 36 of the dosing phase, and on d 1, 7, and 14 of the recovery phase. Blood samples (1 mL) were collected via the cephalic vein 5, 15, and 30 min and 1, 4, 8, and 24 h post the end of infusion on d 8 and 36 of the dosing phase. Formalin-fixed and paraffin-embedded tissue samples collected at the end of the study (d 39) were processed for histologic examination.

The test system of data set [4] is tumor cells. To be noted: in culture; read-out: IC50 tumor cell killing; cited from earlier work.
Data set [5] relates to beagle dogs. In words: Electrocardiography studies in beagle dogs. The class given is in vivo. As for the experimental part: At each time point, eight-lead ECGs were continuously recorded for at least 30 sec. At least five consecutive ECG waveforms and the associated RR intervals deemed most representative were selected for quantitative analysis at each time point. The ECG interval measurements (PR, QRS, QT, QTc, RR, and heart rate) were made on a single lead. The measured waveforms at each time point were averaged and reported. The QTc interval was calculated using the Fridericia (QT/[RR]^1/3) method. The RR interval was used to derive the heart rate and in QT interval correction. Qualitative assessments included normal sinus rhythm variations, abnormal sinus rhythms, conductance or repolarization abnormalities, bradycardia, and tachycardia. Group comparisons of ECG data (PR, QRS, QT, QTc, and heart rate) were analyzed using ANOVA.

The target in data set [6] is Human Kv4.3/KChIP2 (Homo sapiens, UniProt Q9UK17). In words: Ion channel screening, Kv4.3/KChIP2. Conditions: n=13, read-out: inhibition of Kv4.3/KChIP2 currents. The class given is cell-based.
From the text: The parameters measured were the maximum inward current evoked on stepping to −20 mV from the 1st and 26th pulse. Human Kv4.3/KChIP2 currents were evoked from a holding potential of −80 mV by a series of four 500 msec pulses to 0 mV using a 1000 msec interval between pulses. The parameter measured was the amplitude of the outward current 50 msec after the onset of the 4th voltage step to 0 mV. Human Cav1.2 currents were evoked by 2 pulses to −10 mV from a holding potential of −100 mV. The parameters measured were the maximum inward currents evoked on stepping to −10 mV from the holding potential of −100 mV for the 1st and 2nd pulse. Human Kv1.5 currents were evoked by a single pulse from a holding potential of −80 mV to a potential of 0 mV for 4 sec before returning to −80 mV. The parameters measured were the maximum amplitude of outward currents evoked at the beginning of the voltage pulse and at the end of the voltage step from −80 mV to 0 mV. Human KCNQ1/minK currents were evoked by a single pulse delivered from a holding potential of −80 mV to +60 mV for 4 sec before returning to −80 mV. The parameter measured was the maximum outward current evoked on stepping to +60 mV from the holding potential of −80 mV. hERG currents were evoked by a three-pulse protocol where voltage was first stepped to +40 mV for two sec from a holding potential of −80 mV to inactivate hERG channels. […]
In data set [7] the target is Human HCN4 (Homo sapiens, UniProt Q9Y3Q4). In words: Ion channel screening, HCN4. The class given is cell-based. Conditions: n=16, read-out: inhibition of HCN4 currents.
From the text: (§1) The parameter measured was the maximum outward current evoked on stepping to +60 mV from the holding potential of −80 mV. hERG currents were evoked by a three-pulse protocol where voltage was first stepped to +40 mV for two sec from a holding potential of −80 mV to inactivate hERG channels. The voltage is then stepped back to −50 mV for two sec to evoke a tail current prior to returning to the holding potential for 1 sec. The parameter measured was the amplitude of the 3rd pulse tail current upon stepping back to −50 mV after the step to +40 mV. Human HCN4 currents were evoked by a single pulse from a holding potential of −30 mV to a potential of −110 mV for 4 sec prior to returning to −30 mV. The parameter measured was the maximum inward current evoked upon stepping to −110 mV from the holding potential of −30 mV. Human Kir2.1 currents were evoked from a holding potential of −20 mV by a series of 10 500 msec pulses to −120 mV using a 200 msec interval between pulses. The parameters measured were the amplitudes of the instantaneous inward currents evoked on stepping to −120 mV for the 1st pulse and the maximum inward current at the end of the 10th hyperpolarizing pulse. For all experiments, data were filtered for seal quality, seal drop, and current amplitude.
The target in data set [8] is CYP3A4 (Homo sapiens, UniProt P08684). In words: CYP inhibition in liver microsomes, CYP3A4. To be noted: human liver microsomes 0.1 mg/mL. The class given is in vitro ADME.
Method: (§2) After addition of prototypical CYP substrates in 250 μL, samples were incubated for 10 min (CYP1A2, CYP2B6, CYP2C9, and CYP3A4) or 20 min (CYP2C8) at 37° C. in 5% CO2. […] Samples were analyzed for metabolite formation by LC-MS/MS. The results were expressed using the peak area ratio of analyte to internal standard, based on the calibration curves.
(§3) where Range=fitted uninhibited value, s=slope factor, x=inhibitor concentration, y=% control activity.
The target in data set [9] is CYP2C9 (Homo sapiens, UniProt P11712). In words: CYP inhibition in liver microsomes, CYP2C9. Conditions: human liver microsomes 0.1 mg/mL. The class given is in vitro ADME. (In general: Liver microsomes are a subcellular fraction often used to study metabolism.)
Method: as §2, §3
For data set [10], the target named is CYP2A6 (Homo sapiens, UniProt P11509). Nature of the data set: CYP inhibition in liver microsomes, CYP2A6. The class given is in vitro ADME. To be noted: human liver microsomes 0.1 mg/mL.
Method: as §2, §3
The subject of data set [11] is melanoma cell lines. Conditions: melanoma lines of NCI 60 screen; read-out: IC50 anticancer activity; cited from earlier work.
Data set [12] in a line: Stability and particle size distribution of Gamitrinib Injectable Suspension (GIS). The class given is physicochemical. On the procedure:
A sequential three-step process was utilized to prepare Good Laboratory Practice (GLP) working solutions of Gamitrinib (5 mg/mL) for preclinical studies. The formulation workflow is as follows: Step 1—Solubilization of Gamitrinib powder in DMSO (2.5%); […] Step 3—Dilution in 5% dextrose (87.5%). […] For Good Manufacturing Practice (GMP) studies, a Gamitrinib Injectable Suspension (GIS) was prepared by microfluidization. Gamitrinib stock solutions prepared as above were passed through a microfluidizer (Dyhydromatics, Acton, Mass.) with rate of flow set at low, medium, and high. At the end of GIS processing, microfluidization was continued at reduced pressure (2000 psi) for 1-2 min. […] Gamitrinib is formulated using a three-step dilution process described in the Materials and Methods section. A sterile, Gamitrinib Injectable Suspension (GIS) is prepared for clinical use using microfluidization with the schematic flowchart shown in FIG. 5B.

The target in data set [13] is Human Kir2.1 (Homo sapiens, UniProt P63252). In words: Ion channel screening, Kir2.1. The class given is cell-based. Conditions: n=15, pulse 10, read-out: inhibition of Kir2.1 currents.
From the text: as §1
Data set [14] has as its target CYP2B6 (Homo sapiens, UniProt P20813). In words: CYP inhibition in liver microsomes, CYP2B6. The data set is classed as in vitro ADME. To be noted: human liver microsomes 0.1 mg/mL.
Method: as §2, §3
Setting [15] is: 3.33 mg/kg/dose (NOAEL), d 36 of dosing, both sexes.
Where [16] appears, read: 6.25 mg/kg/dose (HNSTD), d 36, both sexes.

Where two headings read alike, the source gives them in different places. A value given as a limit tells only on which side of the number the result lay.

CYP2C9, sequence (P11712 whole entry): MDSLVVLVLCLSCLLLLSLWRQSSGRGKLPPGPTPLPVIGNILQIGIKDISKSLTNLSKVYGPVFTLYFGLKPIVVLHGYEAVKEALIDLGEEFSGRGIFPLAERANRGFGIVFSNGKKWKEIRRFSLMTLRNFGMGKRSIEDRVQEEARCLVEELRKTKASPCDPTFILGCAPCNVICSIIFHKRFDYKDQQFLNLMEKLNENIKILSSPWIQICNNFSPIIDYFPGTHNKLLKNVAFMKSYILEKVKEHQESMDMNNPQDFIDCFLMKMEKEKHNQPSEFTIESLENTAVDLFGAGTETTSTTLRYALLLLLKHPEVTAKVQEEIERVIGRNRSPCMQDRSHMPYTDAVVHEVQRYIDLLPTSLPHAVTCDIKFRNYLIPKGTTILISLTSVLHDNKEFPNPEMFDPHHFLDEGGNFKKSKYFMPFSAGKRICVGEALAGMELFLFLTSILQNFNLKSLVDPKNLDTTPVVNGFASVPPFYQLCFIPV
CYP2A6, sequence (P11509 whole entry): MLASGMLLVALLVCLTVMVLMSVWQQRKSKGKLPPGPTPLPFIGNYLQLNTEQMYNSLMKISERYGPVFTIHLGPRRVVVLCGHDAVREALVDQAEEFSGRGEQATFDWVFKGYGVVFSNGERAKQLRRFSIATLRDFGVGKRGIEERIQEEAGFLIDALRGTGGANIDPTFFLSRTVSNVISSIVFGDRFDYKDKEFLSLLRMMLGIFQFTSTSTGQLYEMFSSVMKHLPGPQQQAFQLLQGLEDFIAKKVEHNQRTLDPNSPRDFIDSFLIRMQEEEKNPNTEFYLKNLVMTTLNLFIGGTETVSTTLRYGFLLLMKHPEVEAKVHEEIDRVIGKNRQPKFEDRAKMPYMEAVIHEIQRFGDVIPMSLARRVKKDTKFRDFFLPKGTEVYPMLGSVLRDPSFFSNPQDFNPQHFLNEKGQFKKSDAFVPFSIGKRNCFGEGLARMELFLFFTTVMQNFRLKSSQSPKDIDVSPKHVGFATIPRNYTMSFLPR
CYP3A4, sequence (P08684 whole entry): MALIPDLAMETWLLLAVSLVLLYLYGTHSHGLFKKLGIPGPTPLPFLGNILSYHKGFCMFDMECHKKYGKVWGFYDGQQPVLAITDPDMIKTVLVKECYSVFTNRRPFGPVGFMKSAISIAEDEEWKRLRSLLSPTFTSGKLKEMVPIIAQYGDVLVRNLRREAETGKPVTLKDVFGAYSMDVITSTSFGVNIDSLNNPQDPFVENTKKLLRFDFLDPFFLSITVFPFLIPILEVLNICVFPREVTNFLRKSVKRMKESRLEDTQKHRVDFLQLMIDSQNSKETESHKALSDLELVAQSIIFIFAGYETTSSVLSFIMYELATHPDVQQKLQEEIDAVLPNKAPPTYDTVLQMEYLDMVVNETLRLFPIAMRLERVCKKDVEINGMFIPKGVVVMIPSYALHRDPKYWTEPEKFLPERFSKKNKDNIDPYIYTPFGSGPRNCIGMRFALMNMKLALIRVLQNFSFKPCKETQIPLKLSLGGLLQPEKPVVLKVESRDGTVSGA
Human Kir2.1, sequence (P63252 whole entry): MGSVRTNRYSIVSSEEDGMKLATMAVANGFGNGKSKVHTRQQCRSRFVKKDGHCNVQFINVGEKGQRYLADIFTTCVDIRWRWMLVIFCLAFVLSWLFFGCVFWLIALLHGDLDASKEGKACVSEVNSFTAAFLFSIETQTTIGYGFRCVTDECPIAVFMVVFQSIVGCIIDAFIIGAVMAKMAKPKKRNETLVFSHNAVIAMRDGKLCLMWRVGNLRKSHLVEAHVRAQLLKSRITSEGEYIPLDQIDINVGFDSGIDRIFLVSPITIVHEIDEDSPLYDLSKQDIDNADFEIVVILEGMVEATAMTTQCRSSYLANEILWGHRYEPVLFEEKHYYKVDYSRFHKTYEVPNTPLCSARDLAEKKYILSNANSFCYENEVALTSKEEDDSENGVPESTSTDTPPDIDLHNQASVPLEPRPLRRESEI
Human Kv4.3/KChIP2, sequence (Q9UK17 whole entry): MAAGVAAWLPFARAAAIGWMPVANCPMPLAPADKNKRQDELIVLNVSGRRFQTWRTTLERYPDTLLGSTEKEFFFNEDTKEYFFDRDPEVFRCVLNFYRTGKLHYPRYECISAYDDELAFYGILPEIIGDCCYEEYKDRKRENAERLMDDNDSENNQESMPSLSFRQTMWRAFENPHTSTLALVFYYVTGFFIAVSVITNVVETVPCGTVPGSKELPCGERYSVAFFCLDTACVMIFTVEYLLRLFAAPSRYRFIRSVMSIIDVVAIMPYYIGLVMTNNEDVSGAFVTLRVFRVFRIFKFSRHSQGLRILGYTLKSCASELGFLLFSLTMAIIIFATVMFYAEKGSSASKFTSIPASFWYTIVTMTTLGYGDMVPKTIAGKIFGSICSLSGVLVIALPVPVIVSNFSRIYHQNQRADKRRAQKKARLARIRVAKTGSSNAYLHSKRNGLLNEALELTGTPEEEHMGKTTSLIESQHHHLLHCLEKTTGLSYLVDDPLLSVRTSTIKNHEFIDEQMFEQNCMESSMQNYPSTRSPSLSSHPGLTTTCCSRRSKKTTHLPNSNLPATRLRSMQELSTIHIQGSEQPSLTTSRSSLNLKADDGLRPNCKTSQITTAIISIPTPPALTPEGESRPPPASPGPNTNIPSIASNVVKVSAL
Human Kv4.3/KChIP2, sequence (Q9NS61 whole entry partner): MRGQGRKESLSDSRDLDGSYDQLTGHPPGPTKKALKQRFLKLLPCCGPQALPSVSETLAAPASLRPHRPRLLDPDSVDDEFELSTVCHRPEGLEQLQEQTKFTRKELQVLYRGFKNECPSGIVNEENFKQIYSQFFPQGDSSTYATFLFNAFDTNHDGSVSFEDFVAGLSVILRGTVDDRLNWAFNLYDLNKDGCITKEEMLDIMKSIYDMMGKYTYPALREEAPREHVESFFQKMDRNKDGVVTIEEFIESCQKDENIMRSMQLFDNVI
CYP2B6, sequence (P20813 whole entry): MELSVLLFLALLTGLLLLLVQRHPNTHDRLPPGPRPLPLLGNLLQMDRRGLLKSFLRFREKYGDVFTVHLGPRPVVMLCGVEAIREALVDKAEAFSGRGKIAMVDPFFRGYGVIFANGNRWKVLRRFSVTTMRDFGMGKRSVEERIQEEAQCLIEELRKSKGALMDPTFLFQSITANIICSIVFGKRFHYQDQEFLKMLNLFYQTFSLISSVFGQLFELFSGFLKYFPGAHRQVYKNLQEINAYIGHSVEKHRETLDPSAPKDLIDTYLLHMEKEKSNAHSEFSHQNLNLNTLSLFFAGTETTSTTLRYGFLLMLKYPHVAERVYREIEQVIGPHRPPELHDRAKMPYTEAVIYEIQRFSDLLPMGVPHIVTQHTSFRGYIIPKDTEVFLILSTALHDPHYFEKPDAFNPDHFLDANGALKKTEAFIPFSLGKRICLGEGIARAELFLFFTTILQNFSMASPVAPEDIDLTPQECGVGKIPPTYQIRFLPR
Human HCN4, sequence (Q9Y3Q4 whole entry): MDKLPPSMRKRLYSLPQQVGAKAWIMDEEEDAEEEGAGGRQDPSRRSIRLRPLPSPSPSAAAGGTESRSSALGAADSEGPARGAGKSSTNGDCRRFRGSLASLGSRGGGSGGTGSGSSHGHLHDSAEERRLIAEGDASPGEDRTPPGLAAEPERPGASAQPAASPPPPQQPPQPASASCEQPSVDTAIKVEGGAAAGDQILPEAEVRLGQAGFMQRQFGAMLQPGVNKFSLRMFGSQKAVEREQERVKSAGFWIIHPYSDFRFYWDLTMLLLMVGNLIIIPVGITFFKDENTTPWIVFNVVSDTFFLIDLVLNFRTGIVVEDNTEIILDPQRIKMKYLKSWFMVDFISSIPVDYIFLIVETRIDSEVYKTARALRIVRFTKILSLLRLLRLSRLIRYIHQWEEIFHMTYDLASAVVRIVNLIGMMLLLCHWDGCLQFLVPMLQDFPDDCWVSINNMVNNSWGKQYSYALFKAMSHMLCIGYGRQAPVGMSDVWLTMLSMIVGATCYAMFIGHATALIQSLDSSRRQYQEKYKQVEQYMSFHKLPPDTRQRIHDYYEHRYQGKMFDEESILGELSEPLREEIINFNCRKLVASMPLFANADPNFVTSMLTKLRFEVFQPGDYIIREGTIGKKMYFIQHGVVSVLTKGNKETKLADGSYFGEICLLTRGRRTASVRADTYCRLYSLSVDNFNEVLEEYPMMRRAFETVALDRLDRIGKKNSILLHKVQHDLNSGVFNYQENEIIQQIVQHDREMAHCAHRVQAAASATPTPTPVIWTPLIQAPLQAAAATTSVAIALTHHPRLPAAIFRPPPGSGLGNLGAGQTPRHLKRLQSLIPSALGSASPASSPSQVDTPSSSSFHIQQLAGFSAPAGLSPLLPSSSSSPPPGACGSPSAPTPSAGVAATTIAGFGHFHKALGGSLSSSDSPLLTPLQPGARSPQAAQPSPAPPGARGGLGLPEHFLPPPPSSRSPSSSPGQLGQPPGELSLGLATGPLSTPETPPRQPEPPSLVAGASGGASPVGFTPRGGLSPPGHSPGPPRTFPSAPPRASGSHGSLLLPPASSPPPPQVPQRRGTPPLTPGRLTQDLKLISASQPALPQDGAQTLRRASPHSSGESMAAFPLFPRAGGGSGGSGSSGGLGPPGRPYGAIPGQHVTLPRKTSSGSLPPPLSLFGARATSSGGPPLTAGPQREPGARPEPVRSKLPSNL

A word on the IC50: it is the concentration needed to halve the response being measured. By Cmax is commonly meant the highest concentration seen after dosing. For the compound `CO[C@H]1/C=C\C=C(/C)C(=O)NC2=CC(=O)C(NCCCCCC[P+](c3ccccc3)(c3ccccc3)c3ccccc3)=C(C[C@@H](C)C[C@H](OC)[C@H](O)[C@@H](C)/C=C(\C)[C@@H]1OC(N)=O)C2=O` [Gamitrinib, 17-Demethoxy-17-((6-(triphenylphosphonio)hexyl)amino)geldanamycin], the “therapeutically effective dose in mice” value in [1] is on record as 10 mg/kg. Also, the half-inhibitory concentration (IC50) in data set [2] was 160 to 3300 nM; in data set [4], 1000 to 4000 nM; in data set [8] it was 120 to 200 nM; in [9] it was 1100 nM; in data set [10], 24000 nM; in data set [11] it was 360 to 2700 nM. This compound also gave an IC50 in [14] of 16000 nM. Moreover, the peak concentration (Cmax) in data set [3] (setting [15]) is 560 ± 404 ng/mL; in data set [3] (setting [16]), 1260 ± 556 ng/mL. In addition, the AUC(0-t) in [3] (setting [15]) came to 1740 ± 713 ng·h/mL; in [3] (setting [16]) it was 3290 ± 1090 ng·h/mL. Moreover, the “ECG changes in PR interval, QRS duration, QT interval, or heart rate” value in data set [5] (d 32 of dosing at 1.25, 3.33 or 6.25 mg/kg/dose, d 11 of recovery at 6.25) is listed as “No Gamitrinib-related ECG changes”. Besides, the “rhythm abnormalities or qualitative ECG changes” value in [5] (dogs) is recorded as “No other rhythm abnormalities or qualitative ECG changes were observed”. The “prolongation of QTc interval” value in data set [5] (female dogs 6.25 mg/kg/dose, both sexes 1.25 or 3.33 mg/kg/dose) was “No Gamitrinib-related prolongation of QTc interval”; in data set [5] (one out of 5 male dogs at 6.25 mg/kg/dose, d 32 of dosing), 17 ms; in [5] (one out of 5 male dogs at 6.25 mg/kg/dose, d 32 of dosing, reversed in recovery), 7%. In addition, the inhibition at 10 µM was 6.8 ± 2.2% in [6], -0.2 ± 3.7% in data set [7] and -7.3 ± 3.4% in [13]. Further, in [12] (injectable suspension at −20° C.), the “stable (time of storage)” value is reported as no less than 24 weeks. Also, the particle size in data set [12] (injectable suspension produced by microfluidization) is given as less than 200 nm.
